What all share (assay type): in vivo, C57BL/6N mice
In test [1] the test system is p-ACC. Nature of the test: Western blot of p-ACC in liver tissue. Conditions: compound group vs alcohol-fed group. The procedure: Expression of p-AMPKα, p-ACC, and CPT-1, which regulate intrahepatic lipid metabolism, was analyzed by western blot analysis to understand the mechanism involved in pathogenesis of alcoholic steatosis in detail. The specific western blot analysis method is as follows.
First, a mouse liver homogenate was prepared by using a RIPA buffer solution including a protease and tyrosine phosphatase inhibitor cocktail (Sigma). Protein concentrations of lysates were determined using a Bicinchoninic (BCA) Protein Assay Kit (Thermo Scientific, IL, USA) according to the manufacturer's instructions. Isolated soluble proteins ([…]) were separated on an 8% to 15% SDS-polyacrylamide gel. The separated proteins were electroblotted on a nitrocellulose transfer membrane (Bio-Rad, Hercules, Calif., USA). The membrane was incubated with 5% non-fat dry milk for 1 hour and then probed for antigens using antibodies diluted to 1:1,000, and was incubated with anti-pAMPKα, anti-AMPKα, anti-PACC, anti-ACC, anti-CYP2E1, anti-CPT1a (Cell Signaling Technology), and anti-β-actin (Santa Cruz Biotechnology) at 4° C. for 18 hours. […] Band density was measured using ImageJ (National Institutes of Health, Bethesda, Md., USA) and expressed as a multiple relative to β-actin.
In general terms: A western blot detects proteins with antibodies after separation by electrophoresis.

The subject of test [2] is cytochrome P-450 2E1 (CYP2E1). The test can be described thus: Expression of cytochrome P-450 2E1 by tissue staining. The note with it: liver tissue staining; 1 mg/kg oral 10 days; EtOH+B vs EtOH-fed (FIG. 8). The procedure: (§1) 8-week-old C57BL/6N mice were purchased from DAEHAN BIOLINK to be used for efficacy evaluation and quarantined and acclimated in a vivarium of HONGCHEON INSTITUTE OF MEDICAL HERB for 7 days (relative temperature: 23±2° C., relative humidity: 50±5%, and a 12 h light-dark cycle) prior to the start of experimentation. Among them, 18 male mice with no abnormal symptoms were selected and used.
(§2) During a liquid diet adaptation period, a control group was restrictedly fed with a Lieber-DeCarli'82 control liquid diet (F1259SP, Bio-serv), and an alcohol-fed group was restrictedly fed with a Lieber-DeCarli'82 ethanol liquid diet (F1258SP, Bio-serv) using a Liquid diet feeding tube (9019, Bio-serv), and the diets were replaced with new ones at a preset time between 3 P.M. and 5 P.M.
(§3) After 5 days of the liquid diet adaptation period, the mice were orally administered with 1 mg/kg of quercetin-3-O-β-D-xylopyranoside (test substance) for 10 days and fed with a 5% alcohol liquid diet. At 11th day, between 7 A.M. and 9 A.M., a group not fed with alcohol (hereinafter referred to as Pair-fed group) was orally administered with a 45% maltose dextrin solution, and a group fed with a 5% liquid diet (hereinafter referred to as EtOH-fed) and a group administered with a test substance (hereinafter referred to as EtOH+B group) were orally fed with 31.5% ethanol. […]

In test [3] the test system is alcoholic steatosis-induced mice. Nature of the test: Biochemical analysis of ALT and AST levels. The note with it: 1 mg/kg oral 10 days; EtOH+B vs EtOH-fed (FIG. 10). The procedure: as §1, §2, §3
For test [4] the test system is unchanged. The test can be described thus: Concentrations of triglycerides in the blood and liver. Conditions: 1 mg/kg oral 10 days; EtOH+B vs EtOH-fed (FIG. 7). The procedure: as §1, §2, §3
Test [5] shares this test system. Nature of the test: Fat accumulation in the liver (visual observation, H&E staining, Oil Red O staining). The note with it: 1 mg/kg oral 10 days. The procedure: as §1, §2, §3

The structures appear in SMILES notation.

In the case of `O=c1c(O[C@@H]2OC[C@@H](O)[C@H](O)[C@H]2O)c(-c2ccc(O)c(O)c2)oc2cc(O)cc(O)c12` [quercetin-3-O-β-D-xylopyranoside], the p-ACC level entry in test [1] is given as “significantly restored”. Besides, the CYP2E1 expression level result in test [2] is recorded as “far lower”. Moreover, in test [3], the ALT level result is “decreased” and the AST level entry is on record as “decreased”. Also, in test [4], the “concentration of triglycerides in the blood” value is “significantly reduced” and the “concentration of triglycerides in the liver” value was “significantly reduced”. Also, in test [5] (EtOH+B vs EtOH-fed (FIG. 5)), the “amount of lipid accumulated in the liver, dissection and visual observation” value was “significantly reduced”. Further, the “amount of lipid droplets in the liver tissue, H&E and Oil Red O staining” value in test [5] (EtOH+B vs EtOH-fed (FIG. 6)) is recorded as “significantly reduced”.

These data come from patent US10980824B2, “Pharmaceutical composition comprising quercetin-3-O-β-D-xylopyranoside for preventing or treating liver disease” (Hongcheon Institute of Medical Herb, priority 2016, dated 2021).
